Patent US4321212A, “Method for preparing an optically active α-cyano-3-phenoxybenzyl 2-(4-substituted-phenyl)isovalerate” (Sumitomo Chemical Company Limited, priority 1980, dated 1982)
Values after ≈ are worked out from the molar mass of the structure shown.

Tests used:
houseflies = assay: Topical application to female adult WHO-strain houseflies (Test Example 2); assay type: in vivo, housefly, WHO-strain (standard susceptible strain); settings: 0.5 μl acetone solution to the thorax, female adults, 24 hours
Experimental: The compounds of this invention, (1), (2), (3), (4) and (5), were diluted with acetone to a predetermined concentration, and 0.5 μl of each solution was topically applied to the thorax of female adult WHO-strain houseflies (standard susceptible strain) with a microsyringe. The flies were placed in plastic cups each having a diameter of 11 cm in which a bait (3% sugar water) was placed. 24 hours later, the alive and dead was evaluated to determine the LD50 (median lethal dose) (μg/housefly).

carmine mites = assay: Spray test against carmine mites on potted kidney beans (Test Example 3); assay type: in vivo, carmine mite; settings: 20% emulsifiable concentrate diluted 500-fold with water, 10 ml/pot, after 10 days
Experimental: 10 to 15 female adult carmine mites were placed on each leaf of potted kidney beans (2-leaf stage) 9 days old after seeding. After standing in a constant temperature room at 27° C. for a week, a lot of mites in various growth stages were observed on the beans. Each of the emulsifiable concentrates prepared from the compounds of this invention, (1), (2), (3), (4), and (5), in the procedures described in Formulation Example 2 was diluted 500-fold with water and sprayed to the beans on a turntable in a proportion of 10 ml/pot.

tobacco cutworms = assay: Leaf-dip test on fourth instar larvae of tobacco cutworms (Test Example 1); assay type: in vivo, tobacco cutworm; settings: foliar, cabbage leaf dip 1 minute, emulsifiable concentrate diluted with water, 24 hours, 10 larvae per group, three replications, read-out: LC50 (concentration required for 50% death)
Experimental: Each of the emulsifiable concentrates prepared from the compounds of this invention, (4) and (5), in the procedures described in Formulation Example 2 was diluted with water to a pre-determined concentration, and mixed with 3,000 times by weight based on the diluted solution of a spreader (Shin-Rino, a registered trademark of Nippon Noyaku Co., Ltd., for a mixture containing 20% of an alkylphenol polyethylene glycol ether and 12% of a salt of lignin sulfonic acid).
The dried leaves were placed in plastic cups (diameter 10 cm, height 4 cm) at a rate of 2 leaves/cup, and the fourth instar larvae of tobacco cutworms were liberated therein. The dead and alive was evaluated after 24 hours and the values of LC50 (concentration required for 50% death) were obtained.
Experiments of three replications were carried out using 10 larvae per group.

Row | SMILES | LD50 (median lethal dose) (houseflies) | damage of the kidney beans by the mites (carmine mites) | LC50 (tobacco cutworms)
1 | CC(C)C(C(=O)OC(C#N)c1cccc(Oc2ccccc2)c1)c1ccc(OC(F)F)cc1 (racemic) [(b), reference compound] | 0.15 μg/housefly |  | 
2 | COc1ccc(C(C(=O)OC(C#N)c2cccc(Oc3ccccc3)c2)C(C)C)cc1 (racemic) [Reference Compound (a), reference compound] | 0.35 μg/housefly |  | 
3 | COc1ccc([C@@H](C(=O)OC(C#N)c2cccc(Oc3ccccc3)c2)C(C)C)cc1 (stereo partly drawn) [Compound (1), α-cyano-3-phenoxybenzyl S-(+)-2-(4-methoxyphenyl)isovalerate] | 0.18 μg/housefly | hardly observed | 
4 | COc1ccc([C@@H](C(=O)OC(C#N)c2cccc(Oc3ccccc3)c2)C(C)C)cc1 (stereo partly drawn) [Compound (2), α-cyano-3-phenoxybenzyl S-(+)-2-(4-methoxyphenyl)isovalerate] | 0.13 μg/housefly | hardly observed | 
5 | COc1ccc([C@@H](C(=O)O[C@H](C#N)c2cccc(Oc3ccccc3)c2)C(C)C)cc1 [Compound (3), (S)-α-cyano-3-phenoxybenzyl S-(+)-2-(4-methoxyphenyl)isovalerate] | 0.10 μg/housefly | hardly observed | 
6 | CC(C)[C@H](C(=O)O[C@H](C#N)c1cccc(Oc2ccccc2)c1)c1ccc(OC(F)F)cc1 [Compound (4), α-cyano-3-phenoxybenzyl S-(+)-2-(4-difluoromethoxyphenyl)isovalerate] | 0.038 μg/housefly | hardly observed | 5.9 µg/mL (≈ 13.1 µM)
7 | CC(C)[C@H](C(=O)OC(C#N)c1cccc(Oc2ccccc2)c1)c1ccc(OC(F)F)cc1 (stereo partly drawn) [Compound (5), α-cyano-3-phenoxybenzyl S-(+)-2-(4-difluoromethoxyphenyl)isovalerate] | 0.042 μg/housefly | hardly observed | 6.9 µg/mL (≈ 15.3 µM)
